Test results taken from patent publication US20080269184A1, “Niosome Having Metal Porphyrin Complex Embedded Therein, Process For Producing The Same And Drug With The Use Thereof” (priority 2004, published 2008).
Read-outs that look alike come from different tables or passages of the source.

Legend:
[1] = SOD activity by the cytochrome c method (xanthine/xanthine oxidase); type: biochemical; conditions: pH 7.8, 25° C., metalloporphyrin concentration
Experimental: The SOD activity (i.e. O2— extinction activity) of Por-embedding niosome was evaluated according to the cytochrome c method ((1) J. M. Mccord and I. Fridovich, J. Biol. Chem., 244, 6049 (1969) and (2) J. Butler, W. H. Kopenol, E. Margoliash, J. Biol. Chem., 257, 10747 (1982)). A specific procedure was as follows: Five or more Por-embedding niosome solutions (A solutions) with different metalloporphyrin concentrations ranging from 0 to 1,000 μM were prepared. […] The UV-vis was also measured for a solution without addition of Por-embedding niosome (blank) in the same manner.
The ferrocytochrome c formation rates in a solution not containing Por-embedding niosome (vo) and a solution containing Por-embedding niosome (vi) were determined from the relationship between the time and the absorbance at 550 nm in the UV-vis measurement over time. The inhibition coefficient (IC) was calculated according to the following formula to determine the concentration of metalloporphyrin when IC=50% (IC50) from the relationship between the concentration of metalloporphyrin complex and IC. […] The SOD activity of MnT4MPyP and the like was evaluated in the same manner for reference. […]

[2] = SOD activity by the stopped flow method (potassium superoxide); type: biochemical; conditions: HEPES buffer pH 8.1, 36° C.
Experimental: The SOD activity (i.e. ° 2-extinction activity) of Por-embedding niosome was evaluated according to the stopped flow method of Riley et al. (D. P. Riley, W. L. Rivers, and R. H. Weiss, Anal. Biochem., 196, 344 (1991)). A specific procedure was as follows: 60 mM HEPES/HEPES Na buffer solutions (8.1 pH) containing Por-embedding niosome at different concentrations were rapidly mixed with a dimethyl sulfoxide solution of potassium superoxide, which is an O2^−. generation source, at 36° C. to measure over time an attenuation of absorbance at 245 nm due to O2^−. (a decay curve of O2^−. extinction reaction). The relationship of ln (absorbance) and time was determined from the decay curve. The apparent rate constant was calculated from the inclination of the resulting relationship. The rate constant (kcat) of the O2^−. extinction reaction was then determined from the inclination of the relationship of the metalloporphyrin complex concentration and the apparent rate constant.

[3] = value disclosed by Ohse, Kawakami et al., J. Inorg. Biochem., 85, 201 (2001); cited from earlier work
[4] = value disclosed by Fridovich et al., J. Biol. Chem., 273, 24251 (1998); read-out: IC50 (SOD activity); cited from earlier work

Molecule | IC50 [1] | kcat (rate constant of the O2−. extinction reaction) [2] | kcat (rate constant of the O2−. extinction reaction) [3] | IC50 [4]
manganese[5,10,15,20-tetrakis(2-methylpyridyl)porphyrin] [MnT2MPyP] | 180 nM | 2.1e+07 M⁻¹ s⁻¹ | – | –
C[n+]1ccc(-c2c3nc(c(-c4cc[n+](C)cc4)c4ccc([n-]4)c(-c4cc[n+](C)cc4)c4nc(c(-c5cc[n+](C)cc5)c5ccc2[n-]5)C=C4)C=C3)cc1.[Mn+2] [MnT4MPyP, Manganese[5,10,15,20-tetrakis(4-methylpyridyl)porphyrin]] | 430 nM | 1.4e+07 M⁻¹ s⁻¹ | 2.2e+07 M⁻¹ s⁻¹ | 700 nM
